This note sets out measurements from article PMC8065100, “How cyanophage S-2L rejects adenine and incorporates 2-aminoadenine to saturate hydrogen bonding in its DNA” (Nature Communications, 2021).

Assay [1] deals with T1, DatZ (S-2L HD phosphohydrolase) (Cyanophage S-2L, UniProt A0A7U3TCA2).
T1 construct: full length 175 aa, synthetic codon-optimised gene, N-terminal 14-His tag removed by TEV, E. coli host, hexamer (D3)
Briefly: X-ray crystal structure; hydrolysis to dA seen by HPLC. Format: binding. The note with it: crystals grown with 10 mM EDTA, pH 7; active site; partially occupied Zn2+ in site A; HPLC assay: 20 mM Tris pH 7, 5 mM MgCl2, 37 °C.

Assay [2] deals with S-2L DatZ (dATP triphosphohydrolase, HD-domain phosphohydrolase of cyanophage S-2L) (cyanophage S-2L). Briefly: AUC + other: DLS; in vitro; stoichiometry worked out assuming a perfectly globular shape; conditions not given.

In the case of `Nc1ncnc2c1ncn2[C@H]1C[C@H](O)[C@@H](COP(=O)(O)OP(=O)(O)OP(=O)(O)O)O1` [dATP], the “X-ray crystal structure; hydrolysis to dA seen by HPLC” value in assay [1] is on record as “we solved a third structure of DatZ, this time with bound dATP (PDB ID: 6ZPC”.
With “S-2L DatZ (dATP triphosphohydrolase, HD-domain phosphohydrolase of cyanophage S-2L) (enzyme)”, the stoichiometry N (protomers per oligomer) in assay [2] worked out at 5.9.
